Type in all cases: in vivo
The subject of assay [1] is Amaranthus retroflexus. In words: Herbicidal pre-emergence action. Particulars: visual grading after ca. 3 weeks vs untreated controls. An excerpt:
(§1) Seeds of mono- and dicotyledonous weed plants were sown in plastic pots (double sowings with one species of mono- and one species of dicotyledonous weed plants per pot), in sandy loam, and covered with soil. The compounds according to the invention, formulated in the form of wettable powders (WP) or as emulsifiable concentrates (EC), were applied to the surface of the covering soil as an aqueous suspension or as an emulsion, with the addition of 0.5% of an additive, at an application rate of 600 litres of water per hectare (converted). Following treatment, the pots were placed in a greenhouse and kept under optimum growth conditions for the test plants. The visual grading of the damage to the test plants is carried out after ca. 3 weeks in comparison to untreated controls (herbicidal effect in percent (%): 100% effect = plants have died, 0% effect = as control plants). Seeds of mono- and dicotyledonous weed plants were sown in plastic pots (double sowings with one species of mono- and one species of dicotyledonous weed plants per pot), in sandy loam, and covered with soil. The compounds according to the invention, formulated in the form of wettable powders (WP) or as emulsifiable concentrates (EC), were applied to the surface of the covering soil as an aqueous suspension or as an emulsion, with the addition of 0.5% of an additive, at an application rate of 600 litres of water per hectare (converted). Following treatment, the pots were placed in a greenhouse and kept under optimum growth conditions for the test plants. The visual grading of the damage to the test plants is carried out after ca. 3 weeks in comparison to untreated controls (herbicidal effect in percent (%): 100% effect = plants have died, 0% effect = as control plants).

The test system of assay [2] is Lolium rigidum. The assay can be described thus: Herbicidal pre-emergence action. To be noted: visual grading after ca. 3 weeks vs untreated controls.
From the text: as §1

Assay [3] deals with Poa annua. The assay can be described thus: Herbicidal pre-emergence action. Particulars: visual grading after ca. 3 weeks vs untreated controls.
From the text: as §1

Assay [4] has as its system Stellaria media. In words: Herbicidal pre-emergence action. Particulars: visual grading after ca. 3 weeks vs untreated controls.
From the text: as §1

For assay [5], the system named is Stellaria media. In words: Herbicidal post-emergence action. Particulars: 1280 g/ha, visual assessment after ca. 3 weeks vs untreated controls. An excerpt:
(§2) Seeds of mono- and dicotyledonous weed plants were sown in plastic pots (double sowings with one species of mono- and one species of dicotyledonous weed plants per pot), in sandy loam, covered with soil and grown under controlled growth conditions. 2 to 3 weeks after sowing, the test plants were sprayed in the single-leaf stage. The compounds according to the invention, formulated in the form of wettable powders (WP) or as emulsifiable concentrates (EC), were sprayed onto the green plant parts as an aqueous suspension or as an emulsion, with the addition of 0.5% of an additive, at an application rate of 600 litres of water per hectare (converted). The test plants were placed in the greenhouse for ca. 3 weeks under optimum growth conditions, and then the effect of the preparations is assessed visually in comparison with untreated controls (herbicidal effect in percent (%): 100% effect = plants have died, 0% effect = as control plants).

For assay [6], the system named is Amaranthus retroflexus. The assay can be described thus: Herbicidal post-emergence action. Particulars: visual assessment after ca. 3 weeks vs untreated controls.
From the text: as §2, with “plants). Seeds of mono- and dicotyledonous weed plants were sown in plastic pots (double sowings with one species of mono- and one species of dicotyledonous weed plants per pot), in sandy loam, covered with soil and grown under controlled growth conditions. 2 to 3 weeks after sowing, the test plants were sprayed in the single-leaf stage. The compounds according to the invention, formulated in the form of wettable powders (WP) or as emulsifiable concentrates (EC), are sprayed onto the green plant parts as an aqueous suspension or as an emulsion, with the addition of 0.5% of an additive, at an application rate of 600 litres of water per hectare (converted). The test plants were placed in the greenhouse for ca. 3 weeks under optimum growth conditions, and then the effect of the preparations is assessed visually in comparison with untreated controls (herbicidal effect in percent (%): 100% effect = plants have died, 0% effect = as control plants).” for “plants).”

In assay [7] the test system is Kochia scoparia. The assay can be described thus: Herbicidal post-emergence action. Particulars: visual assessment after ca. 3 weeks vs untreated controls.
From the text: as §2, with “plants). Seeds of mono- and dicotyledonous weed plants were sown in plastic pots (double sowings with one species of mono- and one species of dicotyledonous weed plants per pot), in sandy loam, covered with soil and grown under controlled growth conditions. 2 to 3 weeks after sowing, the test plants were sprayed in the single-leaf stage. The compounds according to the invention, formulated in the form of wettable powders (WP) or as emulsifiable concentrates (EC), are sprayed onto the green plant parts as an aqueous suspension or as an emulsion, with the addition of 0.5% of an additive, at an application rate of 600 litres of water per hectare (converted). The test plants were placed in the greenhouse for ca. 3 weeks under optimum growth conditions, and then the effect of the preparations is assessed visually in comparison with untreated controls (herbicidal effect in percent (%): 100% effect = plants have died, 0% effect = as control plants).” for “plants).”

For assay [8], the system named is Poa annua. The assay can be described thus: Herbicidal post-emergence action. Particulars: visual assessment after ca. 3 weeks vs untreated controls.
From the text: as §2, with “plants). Seeds of mono- and dicotyledonous weed plants were sown in plastic pots (double sowings with one species of mono- and one species of dicotyledonous weed plants per pot), in sandy loam, covered with soil and grown under controlled growth conditions. 2 to 3 weeks after sowing, the test plants were sprayed in the single-leaf stage. The compounds according to the invention, formulated in the form of wettable powders (WP) or as emulsifiable concentrates (EC), are sprayed onto the green plant parts as an aqueous suspension or as an emulsion, with the addition of 0.5% of an additive, at an application rate of 600 litres of water per hectare (converted). The test plants were placed in the greenhouse for ca. 3 weeks under optimum growth conditions, and then the effect of the preparations is assessed visually in comparison with untreated controls (herbicidal effect in percent (%): 100% effect = plants have died, 0% effect = as control plants).” for “plants).”

The subject of assay [9] is Echinochloa crus-galli. The assay can be described thus: Herbicidal pre-emergence action. Particulars: 1280 g/ha, visual grading after ca. 3 weeks vs untreated controls. An excerpt: (§3) Seeds of mono- and dicotyledonous weed plants were sown in plastic pots (double sowings with one species of mono- and one species of dicotyledonous weed plants per pot), in sandy loam, and covered with soil. The compounds according to the invention, formulated in the form of wettable powders (WP) or as emulsifiable concentrates (EC), were applied to the surface of the covering soil as an aqueous suspension or as an emulsion, with the addition of 0.5% of an additive, at an application rate of 600 litres of water per hectare (converted). Following treatment, the pots were placed in a greenhouse and kept under optimum growth conditions for the test plants. The visual grading of the damage to the test plants is carried out after ca. 3 weeks in comparison to untreated controls (herbicidal effect in percent (%): 100% effect = plants have died, 0% effect = as control plants).

Assay [10] has as its system Setaria viridis. In words: Herbicidal pre-emergence action. Particulars: 1280 g/ha, visual grading after ca. 3 weeks vs untreated controls.
From the text: as §3

For assay [11], the system named is Matricaria inodora. The assay can be described thus: Herbicidal pre-emergence action. Particulars: visual grading after ca. 3 weeks vs untreated controls.
From the text: as §1

Assay [12] deals with Alopecurus myosuroides. The assay can be described thus: Herbicidal post-emergence action. To be noted: 1280 g/ha, visual assessment after ca. 3 weeks vs untreated controls.
From the text: as §2

The test system of assay [13] is Lolium rigidum. In words: Herbicidal post-emergence action. To be noted: 1280 g/ha, visual assessment after ca. 3 weeks vs untreated controls.
From the text: as §2

Assay [14] deals with Matricaria inodora. The assay can be described thus: Herbicidal post-emergence action. Particulars: 1280 g/ha, visual assessment after ca. 3 weeks vs untreated controls.
From the text: as §2

Assay [15] has as its system Setaria viridis. The assay can be described thus: Herbicidal post-emergence action. To be noted: visual assessment after ca. 3 weeks vs untreated controls.
From the text: as §2, with “plants). Seeds of mono- and dicotyledonous weed plants were sown in plastic pots (double sowings with one species of mono- and one species of dicotyledonous weed plants per pot), in sandy loam, covered with soil and grown under controlled growth conditions. 2 to 3 weeks after sowing, the test plants were sprayed in the single-leaf stage. The compounds according to the invention, formulated in the form of wettable powders (WP) or as emulsifiable concentrates (EC), are sprayed onto the green plant parts as an aqueous suspension or as an emulsion, with the addition of 0.5% of an additive, at an application rate of 600 litres of water per hectare (converted). The test plants were placed in the greenhouse for ca. 3 weeks under optimum growth conditions, and then the effect of the preparations is assessed visually in comparison with untreated controls (herbicidal effect in percent (%): 100% effect = plants have died, 0% effect = as control plants).” for “plants).”

The test system of assay [16] is Veronica persica. In words: Herbicidal post-emergence action. To be noted: visual assessment after ca. 3 weeks vs untreated controls.
From the text: as §2, with “plants). Seeds of mono- and dicotyledonous weed plants were sown in plastic pots (double sowings with one species of mono- and one species of dicotyledonous weed plants per pot), in sandy loam, covered with soil and grown under controlled growth conditions. 2 to 3 weeks after sowing, the test plants were sprayed in the single-leaf stage. The compounds according to the invention, formulated in the form of wettable powders (WP) or as emulsifiable concentrates (EC), are sprayed onto the green plant parts as an aqueous suspension or as an emulsion, with the addition of 0.5% of an additive, at an application rate of 600 litres of water per hectare (converted). The test plants were placed in the greenhouse for ca. 3 weeks under optimum growth conditions, and then the effect of the preparations is assessed visually in comparison with untreated controls (herbicidal effect in percent (%): 100% effect = plants have died, 0% effect = as control plants).” for “plants).”

Assay [17] concerns Veronica persica. The assay can be described thus: Herbicidal pre-emergence action. To be noted: 1280 g/ha, visual grading after ca. 3 weeks vs untreated controls.
From the text: as §3

Assay [18] concerns Echinochloa crus-galli. In words: Herbicidal post-emergence action. Particulars: 1280 g/ha, visual assessment after ca. 3 weeks vs untreated controls.
From the text: as §2

As to `O=C(Nc1ncns1)c1nc(Cl)ccc1OC(F)(F)F` [Example I-013, 6-chloro-N-(1,2,4-thiadiazol-5-yl)-3-(trifluoromethoxy)pyridine-2-carboxamide], the figures for the “herbicidal effect AMARE” value in assay [1] (320 g/ha), in assay [1] (1280 g/ha) and in assay [6] (1280 g/ha) were 90%, 100% and 100%, respectively. Besides, the “herbicidal effect LOLRI” value in assay [2] (1280 g/ha) was 90%. Besides, the “herbicidal effect POAAN” value in assay [3] (320 g/ha) is 100%; in [3] (1280 g/ha) it was 100%; in [8] (320 g/ha), 90%; in [8] (1280 g/ha), 100%. The “herbicidal effect STEME” value in assay [4] (1280 g/ha) and in [5] was 90% each time. For the same compound, the “herbicidal effect KCHSC” value in [7] (320 g/ha) is 90%; in assay [7] (1280 g/ha) it was 100%.
On to `O=C(Nc1nc(Cl)ns1)c1nc(F)ccc1Br` [Example I-017, 3-bromo-N-(3-chloro-1,2,4-thiadiazol-5-yl)-6-fluoro-pyridine-2-carboxamide], for which the “herbicidal effect ECHCG” value in assay [9] is on record as 90%. For the same compound, the “herbicidal effect SETVI” value in assay [10] is on record as 100%; in assay [15] (320 g/ha), 90%; in [15] (1280 g/ha), 90%. Moreover, the results for the “herbicidal effect AMARE” value in [1] (1280 g/ha), in [6] (320 g/ha) and in assay [6] (1280 g/ha) were 100%, 90% and 90%, respectively. The “herbicidal effect LOLRI” value in [2] (320 g/ha), in assay [2] (1280 g/ha) and in assay [13] was 90% throughout. Also, the results for the “herbicidal effect MATIN” value in [11] (320 g/ha), in assay [11] (1280 g/ha) and in assay [14] were 100%, 100% and 90%, respectively. The “herbicidal effect POAAN” value in [3] (320 g/ha), in assay [3] (1280 g/ha), in assay [8] (320 g/ha) and in assay [8] (1280 g/ha) was 90% in each case. Moreover, the “herbicidal effect STEME” value in assay [4] (320 g/ha), in assay [4] (1280 g/ha) and in [5] was 90% each time. Moreover, the “herbicidal effect ALOMY” value in assay [12] was 90%. For the same compound, the “herbicidal effect KCHSC” value in assay [7] (320 g/ha) and in assay [7] (1280 g/ha) was 90% each time. Further, the “herbicidal effect VERPE” value in assay [16] (320 g/ha) and in assay [16] (1280 g/ha) was 90% each time.
Turning to `O=C(Nc1ncns1)c1ncc(Cl)cc1C(F)(F)F` [Example I-036, 5-chloro-N-(1,2,4-thiadiazol-5-yl)-3-(trifluoromethyl)pyridine-2-carboxamide], the “herbicidal effect VERPE” value in assay [17] and in [16] (1280 g/ha) was 90% throughout. The “herbicidal effect AMARE” value in assay [1] (1280 g/ha) and in [6] (1280 g/ha) was 90% throughout.
For the compound `O=C(Nc1ncns1)c1nc(Cl)ccc1Br` [Example I-039, 3-bromo-6-chloro-N-(1,2,4-thiadiazol-5-yl)pyridine-2-carboxamide], the “herbicidal effect ECHCG” value in assay [9] and in assay [18] was 90% in each case. The “herbicidal effect AMARE” value in [1] (1280 g/ha), in assay [6] (320 g/ha) and in assay [6] (1280 g/ha) was 100% in each case. Further, the “herbicidal effect MATIN” value in [11] (1280 g/ha) was determined as 100%. Besides, the “herbicidal effect POAAN” value in [3] (1280 g/ha), in assay [8] (320 g/ha) and in assay [8] (1280 g/ha) was 90% each time. Moreover, the “herbicidal effect STEME” value in [4] (1280 g/ha) and in [5] was 90% each time. Also, the “herbicidal effect SETVI” value in assay [15] (1280 g/ha) was 90%. For the same compound, the “herbicidal effect VERPE” value is on record as 90% in [16] (320 g/ha) and 100% in assay [16] (1280 g/ha).
